# Experimental data published in patent publication US11649326B2, “Functional, segregated, charged telodendrimers and nanocarriers and methods of making and using same” (The Research Foundation for the State University of New York, priority 2015, dated 2023).
# Test system: HT-29 cells
# Assay: Cellular uptake of FITC-BSA by CLSM in HT-29 cells
# Assay type: cell-based
# Conditions: 37° C., 3 h, P/T ratio 1/3 by weight
# Method: Cellular Uptake of Protein-Loaded Telodendrimer Nanoparticles. Green fluorescent FITC-BSA molecules were used to probe the intracellular trafficking of proteins without and with telodendrimer nanoparticles. HT-29 colon cancer cells were incubated with free FITC-BSA and FITC-BSA-loaded telodendrimer nanoparticles, and were imaged by confocal laser scanning microscopy (CLSM). […] Only a small amount of the FITC-BSA molecules loaded in the nanoparticles of the telodendrimers containing four guanidine groups at a P/T ratio of 1/3 by weight could be delivered to the cellular interiors (green fluorescence in FIG. 6b). […] The poor intracellular protein delivery efficiency of the telodendrimers containing four guanidine groups may restrict their applications for intracellular delivery, however, this endows them with the potential to serve as nanocarriers for systemic delivery of proteins such as insulin. […]
# Cellular Uptake. The cellular uptake and intracellular trafficking of the protein-incorporated nanoparticles were determined by fluorescence microscopy. […] The slides were mounted with cover slips and cells were imaged with a […] FV1000 laser scanning confocal fluorescence microscope.
substance,measurement,value
"FITC-BSA: Fluorescein isothiocyanate (FITC) labeled bovine serum albumin, fluorescent model protein",cellular uptake of FITC-BSA,could hardly enter the cells spontaneously
